Tested on: keratinocytes
Test: Active photoprotection against UVA oxidative stress induced on keratinocytes (DCFH-DA fluorescent probe)
Type: cell-based
Details: for % of fluorescence relative to the control cells exposed to UVA, TEST 1 / % of fluorescence relative to the control cells exposed to UVA, TEST 2: 24 hours preincubation, DCF fluorescence after UVA; for % of fluorescence relative to the control cells exposed to UVA, Mean: mean of TEST 1 and TEST 2
Method: The photoprotection evaluation technique is performed according to a well-known method (J. of Photochemistry and Photobiology B: Biology 57 (2000) 102–112 TOBI et al: Glutathione modulates the level of free radicals produced in UVA irradiated cells). This technique uses a fluorescent probe, a marker of intracellular global oxidative stress, 2′,7′-dichlorofluoresceine diacetate (DCFH-DA).
The use of DCFH-DA as an oxidative stress marker is based on its physicochemical properties. It is a nonionic apolar molecular capable of diffusing across cell membranes. Once inside the cell, DCFH-DA is hydrolysed by intracellular esterases to a non-fluorescent compound: DCFH or […]. In the presence of activated oxygen species, DCFH is rapidly oxidized to a highly fluorescent compound: DCF or 2,7-dichlorofluoresceine.
At confluence, the keratinocytes are incubated in the presence of a compound of formula (I) for 24 hours at 37° C., 5% CO2, in the culture medium, according to a dose effect (3 concentrations).
The keratinocytes, pretreated with a compound of formula (I), are rinsed and then incubated in the presence of DCFH-DA in the dark.
After this incubation, the DCFH-DA solution is removed and the cells are then exposed to UVA.
Comment: a non-exposed control plate is stored in the dark, at room temperature.
The fluorescence of the DCF is evaluated immediately after the exposure to UVA, via spectrofluorimetry (excitation: 480 nm; emission: 530 nm).
The results are expressed as % of fluorescence relative to the control cells exposed to UVA: […]

With `O=C1NCC(=O)N2C(=O)SCC12` (stereo not shown) [Compound 2, Tetrahydrothiazolo[3,4-a]pyrazine-3,5,8-trione] the “% of fluorescence relative to the control cells exposed to UVA, TEST 1” value (compound at 0.05 mM) was 98%, the “% of fluorescence relative to the control cells exposed to UVA, TEST 2” value (compound at 0.05 mM) was 86% and the “% of fluorescence relative to the control cells exposed to UVA, Mean” value (compound at 0.05 mM) was 92%. For the same compound, the “% of fluorescence relative to the control cells exposed to UVA, TEST 1” value (compound at 0.5 mM) was 79%, the “% of fluorescence relative to the control cells exposed to UVA, TEST 2” value (compound at 0.5 mM) was 74% and the “% of fluorescence relative to the control cells exposed to UVA, Mean” value (compound at 0.5 mM) was 76.5%. For the same compound, the “% of fluorescence relative to the control cells exposed to UVA, TEST 1” value (compound at 5 mM) was 69%, the “% of fluorescence relative to the control cells exposed to UVA, TEST 2” value (compound at 5 mM) was 58% and the “reduction of fluorescence (optimum efficacy)” value (compound at 5 mM, UVA oxidative stress) was “about 36%”. For the same compound, the “% of fluorescence relative to the control cells exposed to UVA, Mean” value (compound at 5 mM) was 63.5%.

Source: patent US7022317B2, “Heterocyclic derivatives of 2-oxothiazolidine-4-carboxylic acid, and use as active photoprotective agents” (L'Oreal, priority 2003, dated 2006)
